Where two headings read alike, the source gives them in different places.
Key:
MAPKAPK2 = MAPKAPK2 (Homo sapiens, UniProt P49137); assay: In vitro selection of DNA-templated macrocycle library against GST-fused target; assay type: binding; details: one round of selection; DNA-linked library member
From the text: (§1) Multiple representatives were chosen from each protein class so that we could compare selection results within protein families. In total, we performed a single round of in vitro selection against 36 protein targets. Additionally, we also performed a selection for binding to GST (with no fused target protein) immobilized on glutathione-linked resin. Although successive rounds of selection (with or without DNA amplification and translation between rounds) can multiply net enrichment factors,^29 we hypothesized that recent advances in ultra high-throughput DNA sequencing would enable even modest enrichment factors to be robustly detected, and the findings in this work are the result of a single round of selection on each protein target.
(§2) Following in vitro selection, DNA templates linked to target-binding macrocycles were amplified in PCR reactions using primers containing “barcode” sequences specific to each selection (FIG. 3). We also amplified DNA templates from eight aliquots of the unselected library to determine the initial abundance of each library member. A set of 12 five-base barcodes used in pairwise combinations provided sufficient encoding complexity for one round of selection against 36 protein targets, a control selection against immobilized GST, and eight pre-selection library samples (Table 3). These barcodes were designed to differ by at least three bases from one another so that common DNA sequencing errors would not preclude barcode assignment. After affinity selection and PCR amplification, barcoded samples were combined in equimolar amounts and submitted for ultra high-throughput DNA sequencing^46,47 as a single sample.
(§3) To rapidly identify the DNA-linked macrocycles that survived target affinity selection, we used Solexa (Illumina) DNA sequencing technology.^48 Because standard Solexa sequencing read lengths at the time of this experiment were shorter than the length of our barcoded library templates (84 base pairs), the paired-end sequencing method, which provides both forward and reverse sequencing reads for each template, was used. We created a PERL computer program to analyze the large amount of data emerging from high-throughput sequencing. First, forward and reverse sequence reads were merged to give complete template sequences (FIG. 4a). Each complete DNA sequence was converted into a combination of a barcode (selection identity) and three codons (building block identities). Template sequences were then binned by barcode to deconvolute the results of each selection. The abundance fraction of each library member was determined within each selection by counting the number of corresponding DNA sequence occurrences and dividing by the total number of interpretable sequence reads for that selection. Finally, enrichment factors for each library member were computed by dividing post-selection abundance fraction by pre-selection abundance fraction. In total, we received 25.6 million paired forward and reverse sequence reads from two Solexa sequencing runs. Of these, all four codons (which require five out of six correct bases per codon for the building blocks, and three out of three correct bases per codon for the scaffold^24) and the selection barcode (which requires four out of five correct bases) could be conclusively assigned for 12.4 million sequences. As a result, we obtained ˜200,000 sequence reads for each selection, and 1.7 million sequence reads of the pre-selection library.
(§4) In vitro selections of the 13,824-membered library were conducted exactly as described above for the positive control selections. For each selection, 5 pmol of library were used. PCR amplification of selection survivors was performed with 5′-barcoded forward and reverse primers. Barcoded PCR amplicons were quantitated using Picogreen dsDNA quantitation reagent (Invitrogen), mixed in equimolar amounts, and submitted for high-throughput DNA sequencing.

Pim1 = Pim1 (Homo sapiens, UniProt P11309); assay: as above; assay type: binding; details: one round of selection; DNA-linked library member
Sequence of Pim1 (P11309 whole entry): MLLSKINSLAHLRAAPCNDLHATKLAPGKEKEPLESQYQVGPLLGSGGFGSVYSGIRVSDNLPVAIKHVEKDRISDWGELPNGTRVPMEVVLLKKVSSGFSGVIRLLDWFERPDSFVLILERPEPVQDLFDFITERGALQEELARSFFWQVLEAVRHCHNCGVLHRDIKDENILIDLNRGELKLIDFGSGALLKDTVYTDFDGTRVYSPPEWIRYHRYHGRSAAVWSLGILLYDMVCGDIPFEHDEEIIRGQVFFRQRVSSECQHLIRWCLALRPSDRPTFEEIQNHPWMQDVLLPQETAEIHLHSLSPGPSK
From the text: as §1, §2, §3, §4

AURKA (Aurora A) = target: T1, AURKA (Aurora A) (Homo sapiens, UniProt O14965); assay: SelectScreen kinase profiling; assay type: biochemical; details: Aurora A; 10-point titration
T1 sequence (O14965 1-403): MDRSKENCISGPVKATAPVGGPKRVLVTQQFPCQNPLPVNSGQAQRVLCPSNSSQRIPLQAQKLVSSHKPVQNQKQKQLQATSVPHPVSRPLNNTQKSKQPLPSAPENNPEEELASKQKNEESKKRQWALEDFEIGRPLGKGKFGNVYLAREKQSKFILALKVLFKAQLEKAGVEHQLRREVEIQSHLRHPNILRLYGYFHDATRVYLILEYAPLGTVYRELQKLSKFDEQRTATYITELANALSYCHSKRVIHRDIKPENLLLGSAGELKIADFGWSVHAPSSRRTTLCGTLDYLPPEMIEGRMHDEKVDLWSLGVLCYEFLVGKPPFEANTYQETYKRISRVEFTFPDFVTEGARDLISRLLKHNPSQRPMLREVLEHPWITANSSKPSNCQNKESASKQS
Method: (§5) Src IC50 determinations and single-point inhibition measurements were performed using Invitrogen's Z′-LYTE Tyr 02 assay kit according to the manufacturer's protocols. All kinase assays were performed at ATP concentrations near KM,ATP values, except where noted otherwise. Active human Src kinase was obtained from Millipore. For kinome profiling and IC50 determinations against non-Src kinases, compounds were submitted to Invitrogen's SelectScreen Kinase Profiling Service.

ABL1 = ABL1 (Homo sapiens, UniProt P00519); assay: SelectScreen kinase profiling; assay type: biochemical
Sequence of ABL1 (P00519 whole entry): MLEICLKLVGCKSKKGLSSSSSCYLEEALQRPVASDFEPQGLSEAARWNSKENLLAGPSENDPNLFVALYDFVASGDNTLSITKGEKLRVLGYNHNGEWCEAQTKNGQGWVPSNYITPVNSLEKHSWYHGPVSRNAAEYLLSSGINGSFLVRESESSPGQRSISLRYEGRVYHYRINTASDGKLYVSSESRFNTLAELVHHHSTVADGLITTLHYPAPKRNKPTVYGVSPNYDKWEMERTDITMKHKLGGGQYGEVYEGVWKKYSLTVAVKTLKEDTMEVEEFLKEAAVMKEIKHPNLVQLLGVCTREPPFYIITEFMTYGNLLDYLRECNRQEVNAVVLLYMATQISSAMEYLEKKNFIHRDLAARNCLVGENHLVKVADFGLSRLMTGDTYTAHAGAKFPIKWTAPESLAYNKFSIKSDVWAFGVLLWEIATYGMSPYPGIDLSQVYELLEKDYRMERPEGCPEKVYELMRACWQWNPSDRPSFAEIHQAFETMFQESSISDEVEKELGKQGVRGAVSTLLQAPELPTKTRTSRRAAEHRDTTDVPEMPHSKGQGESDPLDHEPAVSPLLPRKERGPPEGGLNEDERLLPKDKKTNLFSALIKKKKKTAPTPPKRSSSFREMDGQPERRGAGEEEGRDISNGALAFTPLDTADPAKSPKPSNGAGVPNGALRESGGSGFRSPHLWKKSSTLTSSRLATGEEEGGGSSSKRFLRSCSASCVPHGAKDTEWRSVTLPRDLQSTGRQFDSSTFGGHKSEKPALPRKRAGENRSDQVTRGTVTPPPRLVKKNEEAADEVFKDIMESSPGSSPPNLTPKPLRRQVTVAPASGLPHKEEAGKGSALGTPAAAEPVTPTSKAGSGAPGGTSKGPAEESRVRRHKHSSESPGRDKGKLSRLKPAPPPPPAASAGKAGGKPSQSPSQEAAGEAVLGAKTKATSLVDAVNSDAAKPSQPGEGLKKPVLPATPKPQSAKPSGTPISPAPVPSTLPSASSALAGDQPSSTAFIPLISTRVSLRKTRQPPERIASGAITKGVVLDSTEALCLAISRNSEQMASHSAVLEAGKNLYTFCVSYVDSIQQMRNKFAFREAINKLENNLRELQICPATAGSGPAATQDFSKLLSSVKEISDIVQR
Method: as §5

HCK [1] = target: T2, HCK (Homo sapiens, UniProt P08631); assay: SelectScreen kinase profiling; assay type: biochemical
Method: as §5
Target sequence in this assay (P08631 whole entry): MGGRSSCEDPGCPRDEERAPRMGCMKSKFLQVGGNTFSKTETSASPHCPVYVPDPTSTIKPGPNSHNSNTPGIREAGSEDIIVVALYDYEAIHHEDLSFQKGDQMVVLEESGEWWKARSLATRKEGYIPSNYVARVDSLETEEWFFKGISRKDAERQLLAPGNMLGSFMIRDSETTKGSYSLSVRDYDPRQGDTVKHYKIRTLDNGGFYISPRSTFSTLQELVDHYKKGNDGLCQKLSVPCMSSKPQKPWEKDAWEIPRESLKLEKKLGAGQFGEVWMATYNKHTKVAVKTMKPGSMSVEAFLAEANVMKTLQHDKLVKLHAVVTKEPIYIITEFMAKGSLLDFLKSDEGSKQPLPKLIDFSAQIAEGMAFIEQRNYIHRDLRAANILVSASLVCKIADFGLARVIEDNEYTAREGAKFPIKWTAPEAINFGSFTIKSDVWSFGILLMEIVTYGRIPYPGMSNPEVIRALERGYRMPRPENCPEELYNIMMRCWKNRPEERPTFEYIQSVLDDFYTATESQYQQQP

AURKB (Aurora B) = AURKB (Aurora B) (Homo sapiens, UniProt Q96GD4); assay: SelectScreen kinase profiling; assay type: biochemical
Method: as §5

RET = RET (Homo sapiens, UniProt P07949); assay: SelectScreen kinase profiling; assay type: biochemical; details: 10-point titration
Sequence of RET (P07949 29-1114): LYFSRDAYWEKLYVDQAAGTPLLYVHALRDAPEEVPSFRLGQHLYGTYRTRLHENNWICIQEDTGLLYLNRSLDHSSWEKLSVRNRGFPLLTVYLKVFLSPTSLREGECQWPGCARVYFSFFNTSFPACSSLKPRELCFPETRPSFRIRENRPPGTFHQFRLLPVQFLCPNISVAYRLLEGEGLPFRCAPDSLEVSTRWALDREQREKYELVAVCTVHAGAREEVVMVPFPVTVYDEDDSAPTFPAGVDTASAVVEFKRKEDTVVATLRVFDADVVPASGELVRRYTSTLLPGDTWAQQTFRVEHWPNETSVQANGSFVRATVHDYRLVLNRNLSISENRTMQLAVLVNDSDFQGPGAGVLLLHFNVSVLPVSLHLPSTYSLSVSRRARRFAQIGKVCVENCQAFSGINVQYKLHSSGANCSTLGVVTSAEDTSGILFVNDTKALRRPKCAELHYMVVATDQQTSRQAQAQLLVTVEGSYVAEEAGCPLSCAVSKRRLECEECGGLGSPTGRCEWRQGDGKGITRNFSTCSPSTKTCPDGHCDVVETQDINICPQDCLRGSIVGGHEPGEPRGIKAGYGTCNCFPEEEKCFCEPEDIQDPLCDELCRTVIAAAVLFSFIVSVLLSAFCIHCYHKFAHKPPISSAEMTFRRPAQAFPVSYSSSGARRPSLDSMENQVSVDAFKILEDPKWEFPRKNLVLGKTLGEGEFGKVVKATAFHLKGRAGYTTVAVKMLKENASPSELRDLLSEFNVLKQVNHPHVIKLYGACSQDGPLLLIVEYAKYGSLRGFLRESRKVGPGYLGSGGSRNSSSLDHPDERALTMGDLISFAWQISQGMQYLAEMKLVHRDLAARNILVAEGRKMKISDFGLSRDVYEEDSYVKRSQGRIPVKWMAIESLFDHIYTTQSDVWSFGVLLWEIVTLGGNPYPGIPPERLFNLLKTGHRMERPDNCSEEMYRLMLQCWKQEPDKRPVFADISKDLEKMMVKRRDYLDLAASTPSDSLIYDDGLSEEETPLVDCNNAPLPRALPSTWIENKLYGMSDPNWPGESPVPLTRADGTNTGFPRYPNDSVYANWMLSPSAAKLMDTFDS
Method: as §5

FYN = FYN (Homo sapiens, UniProt P06241); assay: SelectScreen kinase profiling; assay type: biochemical
Method: as §5

FGR = FGR (Homo sapiens, UniProt P09769); assay: SelectScreen kinase profiling; assay type: biochemical; details: Fgr; 10-point titration
Method: as §5

[2] = target: T3, Src kinase domain (chicken c-Src residues 251-533) (Gallus gallus, UniProt P00523); assay: Continuous spectrophotometric kinase activity assay; assay type: biochemical; details: for IC50: Src kinase domain
T3 construct: chicken c-Src (residues 251-533 and residues 83-533); made in house
From the text: (§6) Kinase domain constructs of human c-Abl (residues 229-512), chicken c-Src (residues 251-533 and residues 83-533), murine Lck (residues 227-509), and human Hck (residues 166-445) were expressed as previously described (Seeliger, Young et al. 2005; Seeliger, Nagar et al. 2007; the entire contents of each of which are incorporated by reference herein). Mutations were introduced into chicken c-Src (residues 251-533) (T338I, C277Q, L297M) by site-directed mutagenesis and verified by DNA sequencing.
(§7) In vitro kinase inhibition assays were performed using either a continuous spectrophotometric assay or a FRET-based endpoint assay.
(§8) The original characterization of kinase inhibition was performed with a commercial kinase assay that relies on a fluorescently labeled peptide kinase substrate (Z-LYTE, Invitrogen). For further characterization, a continuous spectrophotometric kinase activity assay was employed that is easily adapted to different substrate peptides as well as a wider range of peptide and ATP concentrations.

Abl = target: T4, Abl (Homo sapiens, UniProt P00519); assay: as above; assay type: biochemical
T4 construct: human c-Abl (residues 229-512); made in house
T4 sequence (P00519 229-512): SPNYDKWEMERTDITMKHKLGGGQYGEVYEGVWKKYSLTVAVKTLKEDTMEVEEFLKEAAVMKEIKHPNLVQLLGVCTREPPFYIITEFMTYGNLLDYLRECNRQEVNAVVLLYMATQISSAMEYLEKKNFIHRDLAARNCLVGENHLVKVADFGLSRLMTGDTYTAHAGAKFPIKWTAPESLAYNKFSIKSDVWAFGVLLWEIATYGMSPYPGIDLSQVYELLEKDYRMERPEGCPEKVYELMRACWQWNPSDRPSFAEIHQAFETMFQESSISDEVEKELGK
From the text: as §6, §7, §8

Src kinase domain = target: T5, Src kinase domain (Gallus gallus, UniProt P00523); assay: Fluorescence anisotropy binding assay; set-up: species or system chicken; details: fluorescein-labeled macrocycle, read-out: dissociation constant (KD)
T5 construct: chicken c-Src (residues 251-533 and residues 83-533); made in house
Method: The change in fluorescence anisotropy of fluorescein-labeled MC1, MC4 and MC9 at 518 nm upon excitation at 492 nm was monitored with a HORIBA Jobin Yvon FluoroMax-4 (Edison, N.J.) spectrofluorimeter. Kinase was titrated to 0.5 μM of the fluorescently labeled macrocycle in 100 mM Tris pH 8.0, 10 mM MgCl2 at 25° C. After equilibration, the increase in the fluorescence anisotropy of the fluorescently labeled ligand was recorded and fitted against a quadratic binding equation in Kaleidagraph (Synergy Software, Reading Pa.) to yield the dissociation constant KD.
To clarify the inhibitory mechanism of the compounds further, the binding affinity of fluorescently labeled MC1, MC4, and MC9 to Src kinase domain was determined in a fluorescence anisotropy assay (FIG. 21).

HCK [3] = target: T2, HCK; assay: Continuous spectrophotometric kinase activity assay; assay type: biochemical; set-up: Kinase domain constructs of human c-Abl (residues 229-512), chicken c-Src (residues 251-533 and residues 83-533), murine Lck (residues 227-509), and human Hck (residues 166-445); made in house
From the text: as §6, §7, §8
Target sequence in this assay (P08631 262-515 limits assumed): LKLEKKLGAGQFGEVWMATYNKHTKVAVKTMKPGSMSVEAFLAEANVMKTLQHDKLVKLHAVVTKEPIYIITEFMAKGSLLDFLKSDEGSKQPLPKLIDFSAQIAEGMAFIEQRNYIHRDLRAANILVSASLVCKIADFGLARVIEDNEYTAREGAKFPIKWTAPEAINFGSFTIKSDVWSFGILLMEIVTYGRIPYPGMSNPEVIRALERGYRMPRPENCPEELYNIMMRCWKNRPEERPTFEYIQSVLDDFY

Lck = target: T6, Lck (Mus musculus, UniProt P06240); assay: as above; assay type: biochemical, murine
T6 construct: murine Lck (residues 227-509); made in house
T6 sequence (P06240 227-509): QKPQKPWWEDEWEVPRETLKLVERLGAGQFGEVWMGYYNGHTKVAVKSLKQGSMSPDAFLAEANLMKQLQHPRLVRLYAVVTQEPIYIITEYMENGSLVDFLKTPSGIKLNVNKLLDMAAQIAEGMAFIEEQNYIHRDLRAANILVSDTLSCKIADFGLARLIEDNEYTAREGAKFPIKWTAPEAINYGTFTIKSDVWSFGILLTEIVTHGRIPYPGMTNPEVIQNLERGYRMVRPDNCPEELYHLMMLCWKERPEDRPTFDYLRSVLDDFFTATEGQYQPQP
From the text: as §6, §7, §8

Src kinase = Src kinase (Homo sapiens, UniProt P12931); assay: Z'-LYTE kinase assay (Invitrogen), Src; assay type: biochemical; set-up: full-length kinase in the Z-LYTE assay vs. kinase domain in the current study; purchased Millipore
Sequence of Src kinase (P12931 whole entry, the tested form may be a part): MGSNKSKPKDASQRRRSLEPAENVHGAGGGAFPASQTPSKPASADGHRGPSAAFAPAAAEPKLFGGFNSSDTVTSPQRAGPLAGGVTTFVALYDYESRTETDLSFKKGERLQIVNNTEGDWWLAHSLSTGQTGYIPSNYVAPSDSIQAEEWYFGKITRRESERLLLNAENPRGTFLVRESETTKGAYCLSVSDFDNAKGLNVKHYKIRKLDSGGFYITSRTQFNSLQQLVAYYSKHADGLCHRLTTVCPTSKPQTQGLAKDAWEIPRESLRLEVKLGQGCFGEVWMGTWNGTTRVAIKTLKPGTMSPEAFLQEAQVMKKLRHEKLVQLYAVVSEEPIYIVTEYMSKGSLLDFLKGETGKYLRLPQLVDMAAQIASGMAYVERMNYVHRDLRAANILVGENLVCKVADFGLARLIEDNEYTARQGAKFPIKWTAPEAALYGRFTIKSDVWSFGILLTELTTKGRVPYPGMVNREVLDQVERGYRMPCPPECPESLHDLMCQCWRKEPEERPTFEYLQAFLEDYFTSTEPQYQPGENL
Method: Nine macrocycles enriched in the Src selection (FIG. 5) and synthesized as described above were assayed in vitro for the ability to inhibit Src kinase activity. Kinase activity was assayed in the presence of varying concentrations of macrocycle using the FRET-based Z′-LYTE assay (Invitrogen).
as §5

[4] = system: panel of 58 commercially available human protein kinases; assay: Kinase selectivity panel, Invitrogen SelectScreen; assay type: biochemical
Method: Macrocycle cis-A11-B1-C5-D7 was assayed at 50 μM against a representative panel of 58 commercially available human protein kinases including all nine mammalian Src family kinases (Table 8).
as §5

[5] = target: BcLxL (1-209, Δ45-84, N-terminal GST-fused) (UniProt Q07817); assay: single round of affinity selection of the DNA-linked peptide on GST-Bcl-xL on glutathione beads; restriction digestion
Sequence of BcLxL (1-209, Δ45-84, N-terminal GST-fused) (Q07817 other isoform, or with tags, fused parts or gaps mutant): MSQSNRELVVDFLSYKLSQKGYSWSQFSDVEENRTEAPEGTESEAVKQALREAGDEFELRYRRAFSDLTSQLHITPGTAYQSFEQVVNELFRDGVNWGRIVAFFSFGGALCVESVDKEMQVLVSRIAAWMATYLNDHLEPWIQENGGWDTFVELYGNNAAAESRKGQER

[6] = 5 μM ATP, 100 μM Src optimal peptide
[7] = 5 μM ATP, 300 μM Src optimal peptide
[8] = 250 μM ATP, 300 μM Src optimal peptide

Sequence of MAPKAPK2 (P49137 whole entry, the tested form may be a part): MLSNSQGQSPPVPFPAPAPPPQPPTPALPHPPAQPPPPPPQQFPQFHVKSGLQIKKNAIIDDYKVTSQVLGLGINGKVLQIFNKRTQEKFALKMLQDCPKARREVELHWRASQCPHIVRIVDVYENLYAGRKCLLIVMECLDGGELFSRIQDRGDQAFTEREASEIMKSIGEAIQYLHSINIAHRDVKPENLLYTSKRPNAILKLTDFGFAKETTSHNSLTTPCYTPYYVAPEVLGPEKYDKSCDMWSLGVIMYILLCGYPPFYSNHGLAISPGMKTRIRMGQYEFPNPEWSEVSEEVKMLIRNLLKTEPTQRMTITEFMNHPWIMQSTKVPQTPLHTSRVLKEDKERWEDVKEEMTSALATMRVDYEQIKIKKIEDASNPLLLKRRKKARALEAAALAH

NC(=O)[C@@H]1CCNC(=O)C=CC(=O)N[C@@H](C/C=C/c2ccccc2)C(=O)N[C@@H](CC2CCCCC2)C(=O)N[C@H](Cc2ccc(C(=O)c3ccccc3)cc2)C(=O)N1 [A12-B8-C10-D3]
enrichment upon selection for binding MAPKAPK2 (MAPKAPK2): 3 fold | enrichment upon selection for binding Pim1 (Pim1): 3.5 fold

NC(=O)[C@@H]1CNC(=O)C=CC(=O)N[C@@H](C/C=C/c2ccccc2)C(=O)N[C@@H](CC2CCCCC2)C(=O)N[C@H](Cc2ccc(C(=O)c3ccccc3)cc2)C(=O)N1 [A12-B8-C10-D4]
enrichment upon selection for binding MAPKAPK2 (MAPKAPK2): 3 fold | enrichment upon selection for binding Pim1 (Pim1): 10 fold

NC(=O)[C@@H]1CNC(=O)[C@@H](Cc2ccc(C(=O)c3ccccc3)cc2)NC(=O)[C@H](CC2CCCCC2)NC(=O)[C@H](C/C=C/c2ccccc2)NC(=O)C=CC(=O)N1 [A12-B8-C10-D8]
enrichment upon selection for binding MAPKAPK2 (MAPKAPK2): 2.5 fold | enrichment upon selection for binding Pim1 (Pim1): 6 fold

NC(=O)[C@@H]1CCNC(=O)[C@H](CCCNC(=O)c2cnccn2)NC(=O)[C@H](Cc2ccco2)NC(=O)[C@H](CC2CC2)NC(=O)/C=C\C(=O)N1 [cis-A11-B1-C5-D7]
IC50 (AURKA (Aurora A)): 1.7 µM | selectivity for Src over Abl kinase (ABL1): > 50 fold | selectivity for Src over Hck (HCK [1]): > 50 fold | selectivity for Aurora A over Aurora B (AURKB (Aurora B)): > 50 fold | IC50 (RET): 5.7 µM | selectivity for Src over Fyn (FYN): > 50 fold | IC50 (FGR): 4 µM | IC50 [2, 6]: 16 µM | IC50 [2, 7]: 26 µM | IC50 [2, 8]: 89 µM | increase in IC50 upon increasing substrate peptide 3-fold to 300 μM ([2]; Src optimal substrate peptide 100 to 300 μM): 50% | IC50 (Abl; [6]): > 100 µM | IC50 (Abl; [7]): > 100 µM | IC50 (Abl; [8]): > 100 µM | Kd (Src kinase domain; 250 μM AMP-PNP): 3.3 µM | Kd (Src kinase domain; no competitor): 2.1 µM | IC50 (HCK [3]; [6]): > 100 µM | IC50 (HCK [3]; [7]): > 100 µM | IC50 (HCK [3]; [8]): > 100 µM | IC50 (Lck; [6]): > 100 µM | IC50 (Lck; [7]): > 100 µM | IC50 (Lck; [8]): > 100 µM | IC50 (Src kinase; Z'-LYTE, ATP near KM): 0.96 µM | mode of Src inhibition (Src kinase; apparent KM for ATP versus macrocycle concentration): ATP-competitive | selectivity for Src over all remaining Src-family kinases with the exception of Fgr [4]: > 10 fold | selectivity score ([4]; fraction of non-target kinases with IC50 within 10-fold of Src IC50 (960 nM)): 0.05

Bak peptide (DNA-linked)
Enrichment Factor [5]: 200

From patent US8975232B2, “Macrocyclic kinase inhibitors and uses thereof” (President and Fellows of Harvard College, priority 2010, dated 2015)
